From US4569801A, “Alkylsulfonamidophenylalkylamines” (priority 1984, dated 1986)
Like-named read-outs stand apart in the source and are kept apart here.

What was measured:
[1] = test system: ventricular effective refractory period; experiment: Ventricular effective refractory period in halothane-anesthetized dogs; type: in vivo; settings: for ED (+30 msec): Canis lupus familiaris; for I.D./I.V. (ratio of intraduodenal to intravenous dose): ratio of doses for +30 msec refractory period
Description: Certain of the compounds of the present invention were tested in halothane-anesthetized dogs in an effort to evaluate the effectiveness of the compounds in increasing the ventricular effective refractory period. Table 2 provides the quantity of specified compound in mg/kg necessary to increase the aforementioned refractory period by 30 msec. when administered either intravenously or intraduadenally. The compounds were tested against clofilium and N-ethyl-N-heptyl-4-nitrobenzenebutanamine, ethanedioic acid for comparative purposes.

[2] = test system: normal canine Purkinje fibers; experiment: Action potential duration of normal canine Purkinje fibers superfused in vitro (standard electrophysiological techniques); type: cell-based; settings: Canis lupus familiaris, 10^-7 M, Ringer's solution at 35° C., driven at 1 Hz, read-out: Percent Increase in Action Potential Duration (at 95% of full repolarization)
Description: The antiarrhythmic activity of the compounds provided by the present invention was determined by the use of standard electrophysiological techniques to measure resting potential, action potential amplitude, duration, rate of rise and effective refractory periods of normal canine Purkinje fibers superfused in vitro with Ringer's solution at 35° C. and driven at a constant frequency of 1 Hz. Table 1 presents the data obtained for a number of compounds of the invention when evaluated in this test. The data presented is the percent increase in the action potential duration at 95% of full repolarization at 10^-7 M.

[3] = clofilium and similar quaternary ammonium salts; background; cited from earlier work
[4] = intraduodenal, read-out: quantity of compound necessary to increase the ventricular effective refractory period by 30 msec., Intraduodenal
[5] = intravenous, read-out: quantity of compound necessary to increase the ventricular effective refractory period by 30 msec., Intravenous

Row | Compound | ED (+30 msec) [1, 4] | ED (+30 msec) [1, 5] | I.D./I.V. (ratio of intraduodenal to intravenous dose) [1] | activation at 0.1 µM [2] | oral bioavailability [3]
1 | CCCCCCCN(CCCC)CCCCc1ccc(NS(C)(=O)=O)cc1 [Example 3, N-[4-[4-(Butylheptylamino)butyl]phenyl]methanesulfonamide ethanedioate] | 2.4 mg/kg | 0.1 mg/kg | 24 | 26 ± 4% | –
2 | CCCCCCCN(CC)CCCCc1ccc(NS(=O)(=O)CC)cc1 [Example 8, N-[4-[4-(Ethylheptylamino)butyl]phenyl]ethanesulfonamide] | – | – | – | 19 ± 4% | –
3 | CCCCCCCN(CC)CCCCc1ccc(NS(C)(=O)=O)cc1 [Example 1, N-[4-[4-(Ethylheptylamino)butyl]phenyl]methanesulfonamide ethanedioate] | 2.2 mg/kg | 0.29 mg/kg | 8 | 31 ± 6% | –
4 | CCCCCCCN(CC)C(C)CCCc1ccc(NS(C)(=O)=O)cc1 (centres unmarked) [Example 2, N-[4-[4-(Ethylheptylamino)pentyl]phenyl]methanesulfonamide 2-hydroxy-1,2,3-propanetricarboxylate] | 8 mg/kg | 0.27 mg/kg | 30 | – | –
5 | CCCCCCC[N+](CC)(CC)CCCCc1ccc(Cl)cc1 [clofilium, 4-chloro-N,N-diethyl-N-heptylbenzenebutanaminium phosphate, reference compound] | 7 mg/kg | 0.18 mg/kg | 39 | – | marginal oral bioavailability
6 | CCCCCCCN(CCCC)C(C)CCCc1ccc(NS(C)(=O)=O)cc1 (centres unmarked) [Example 4, N-[4-[4-(Butylheptylamino)pentyl]phenyl]methanesulfonamide] | 4 mg/kg | 0.25 mg/kg | 16 | – | –
7 | CCCCCCCN(CC)CCCCc1cccc(NS(C)(=O)=O)c1 [Example 7, N-[3-[4-(Ethylheptylamino)butyl]phenyl]methanesulfonamide] | – | – | – | 20 ± 9% | –
8 | CCCCCCCN(CC)CCCCc1ccc([N+](=O)[O-])cc1.O=C(O)C(=O)O [N-ethyl-N-heptyl-4-nitrobenzenebutanamine, ethanedioic acid, reference compound] | 1.1 mg/kg | 0.06 mg/kg | 18 | – | –
